Assay results reported in paper PMC10525927, “First Generation of Antioxidant Precursors for Bioisosteric Se-NSAIDs: Design, Synthesis, and In Vitro and In Vivo Anticancer Evaluation” (Antioxidants, 2023).
Read-outs that look alike come from different tables or passages of the source.

What was measured:
HT-29 colon cancer cells = assay: MTT cell viability assay, HT-29; type: cell-based; conditions: mean ± SD
Description: (§1) The cell lines were purchased from the American Type Culture Collection (ATCC). The cancer cell lines DU-145, PC-3, T-47D, MDA-MB-231, H1299, and A549, and the non-tumorigenic cells (184B5 and BEAS-2B), were maintained in RPMI 1640 medium (Gibco, Alcobendas, Madrid, Spain) supplemented with 10% fetal bovine serum (FBS; Gibco) and 1% antibiotics (10.00 units/mL penicillin and 10.00 mg/mL streptomycin; Gibco). Colon cancer cells HT-29 and HCT-116 were cultured in McCoy’s 5A medium (Gibco) supplemented with 10% fetal bovine serum (FBS; Gibco) and 1% antibiotics (10.00 units/mL penicillin and 10.00 mg/mL streptomycin; Gibco). Cells were maintained in tissue culture flasks at 37 °C and 5% CO2. The culture medium was replaced every three days.
(§2) The antiproliferative activity and selectivity in vitro of the Se-NSAID derivatives were determined by the (3-(4,5-dimethylthiazol-2-yl)-2,5-diphenyltetrazolium bromide) (MTT) assay. Compounds were dissolved in DMSO at a concentration of 0.01 M and serial dilutions were prepared. The Se-NSAID derivatives were tested at seven concentrations ranging between 1 and 100 µM in the colon (HT-29 and HCT-116), prostate (DU-145 and PC-3), breast (MDA-MB-231 and T-47D), and lung (H1299 and A549) cancer cell lines. The non-tumorigenic breast (184B5) and lung (BEAS-2B) cell lines were also tested to assess the selectivity of the compounds following the same procedure. A total of 1 × 10^4 cells were seeded per well in 96-well plates and incubated at 5% CO2 and 37 °C for 24 h. Then, cells were treated with either DMSO or increasing concentrations of the corresponding Se-NSAID derivatives for 48 h. A volume of 20 µL of MTT (5 mg/mL) was added to each well 2.5 h before the termination point. At the end of the experiment, the medium was removed, and the resultant formazan crystals formed by mitochondrial reduction of MTT were dissolved in 50 µL of DMSO. Absorbance was measured at 550 nm. IC50, GI50, TGI, and LC50 values were calculated using OriginPro version 8.5.1. software by nonlinear curve fitting. Selectivity indexes (SI) were calculated as the ratio of the IC50 values determined for the nonmalignant and the tumoral cells in the breast (IC50 (184B5)/IC50 (MDA-MB-231) and IC50 (184B5)/IC50 (T-47D)) and lung (IC50 (BEAS-2B)/IC50 (H1299) and IC50 (BEAS-2B)/IC50 (A549)) cell lines. Data were obtained from at least three independent experiments performed in triplicates.

[1] = test system: DU-145 prostate cancer cells; assay: MTT cell viability assay, DU-145; type: cell-based; conditions: mean ± SD
Description: as §1, §2

[2] = test system: PC-3 prostate cancer cells; assay: MTT cell viability assay, PC-3; type: cell-based; conditions: 48 h, mean ± SD
Description: as §1, §2

A549 lung cancer cells = assay: MTT cell viability assay, A549; type: cell-based; conditions: Homo sapiens, A549, 48 h, mean ± SD
Description: as §1, §2

[3] = test system: 184B5 non-tumorigenic breast (mammary gland) cells; assay: MTT cell viability assay, 184B5; type: cell-based; conditions: mean ± SD; for IC50: nonmalignant breast cells
Description: as §1, §2

[4] = test system: BEAS-2B non-tumorigenic lung (bronchial epithelium) cells; assay: MTT cell viability assay, BEAS-2B; type: cell-based; conditions: 48 h, mean ± SD; for IC50: nonmalignant lung cells
Description: as §1, §2

[5] = test system: panel of eight cancer cell lines; assay: MTT cell viability assay, statements on the whole panel; type: cell-based; conditions: 48 h
Description: as §1, §2

HCT-116 cells [6] = assay: Annexin V & Dead Cell apoptosis assay; type: cell-based; conditions: HCT-116, 24 h
Description: (§3) The capacity of the Se-NSAID derivatives to induce apoptosis was analyzed using both a Caspase 3/7 assay kit and Annexin V & Dead Cell assay kit (EMD Millipore, Darmstadt, Germany). HCT-116 cells were seeded in 6-well plates at a density of 5 × 10^5 cells per well. Cells were treated either with DMSO (control) or with different concentrations of compound 5 and incubated for 24 h. At the end of the treatment, cells were collected and treated with the respective dyes according to the manufacturer’s protocol. For the Caspase 3/7 assay, cells were stained with 5 µL of Muse™ Caspase 3/7 working solution and incubated at 37 °C for 30 min. After incubation, […] of Muse™ Caspase 7-AAD working solution was added and the samples were incubated for another 5 min in the dark at room temperature prior to analysis. For Annexin V assay, cells were stained with 100 µL pf Muse™ Annexin V & Dead Cell Reagent and incubated for 20 min at room temperature in the dark. Samples for both assays were analyzed on a Muse™ Cell Analyzer (Merck Millipore, Darmstadt, Germany) using Muse™ version 1.4. software.

HCT-116 cells [7] = assay: Caspase 3/7 apoptosis assay; type: cell-based; conditions: HCT-116, 24 h
Description: as §3

In vivo toxicity study = assay: In vivo toxicity study; parameters: species or system mice; conditions: 7.5 mg/Kg IP thrice weekly, 27 days
Description: Female mice of 4–5 weeks of age (The Jackson Laboratory, Bar Harbor, ME, USA) were kept on the daily cycle of 12 h light/dark and received food and water ad libitum throughout the studies. All animal procedures were performed following the National Institutes of Health (NIH) Guide for the Care and Use of Laboratory Animals and protocols were approved by the Animal Care and Use Committee of the Penn State College of Medicine.
Mice were treated either with intraperitoneal doses of 7.5 mg/Kg of compound 5 or with DMSO (vehicle) thrice weekly and kept under observation for 27 days. Body weight, behavior, and food and water intake were monitored every alternate day. At the end of the study, animals were sacrificed by euthanizing the animals by CO2 asphyxiation. The blood serum was withdrawn and subjected to the biochemical analysis of creatinine (mg/dL), AST(SGOT) (U/L), ALT(SGPT) (U/L), Alk. Phos (U/L), and BUN (mg/dL).

[8] = in vitro TGI concentration, 48 h, Table S1
[9] = in vitro TGI concentration, Table S1

SMILES: CC(C)Cc1ccc(C(C)C(=O)[Se][Se]C(=O)C(C)c2ccc(CC(C)C)cc2)cc1 (stereo not shown) [Compound 5, 2-(4-Isobutylphenyl)propanoic diselenoperoxyanhydride]
- IC50 (HT-29 colon cancer cells; Homo sapiens, HT-29, 48 h): 8.5 ± 2.7 µM
- GI50 (HT-29 colon cancer cells; Homo sapiens, HT-29, 48 h, Table S1): 4.8 ± 1 µM
- TGI HT-29 (HT-29 colon cancer cells; [8]): 7.2 ± 1.8 µM
- LD50 DU-145 ([1]; 48 h, Table S1): 9.0 ± 0.4 µM
- IC50 ([1]; Homo sapiens, DU-145, 48 h): 7 ± 1.3 µM
- GI50 ([1]; Homo sapiens, DU-145, 48 h, Table S1): 6 ± 1.3 µM
- TGI DU-145 [1, 8]: 7.3 ± 0.9 µM
- IC50 [2]: 7.4 ± 0.5 µM
- GI50 ([2]; Table S1): 4.7 ± 0.2 µM
- LD50 PC-3 ([2]; Table S1): 8.9 ± 1.9 µM
- TGI PC-3 [2, 9]: 6.1 ± 0.5 µM
- IC50 (A549 lung cancer cells): 4.5 ± 0.6 µM
- GI50 (A549 lung cancer cells; Table S1): 2.3 ± 0.2 µM
- IC50 ([3]; 48 h): 18.2 ± 0.8 µM
- GI50 ([3]; Homo sapiens, 184B5, 48 h, Table S1): 6.6 ± 1.5 µM
- IC50 ([3]; Homo sapiens, 184B5, 48 h): 14 to 19 µM
- TGI 184B5 [3, 8]: 11.1 ± 1.4 µM
- LD50 BEAS-2B ([4]; Table S1): 14.8 ± 4.7 µM
- IC50 [4]: 15.9 ± 2.4 µM
- GI50 ([4]; Homo sapiens, BEAS-2B, Table S1): 7.8 ± 2.3 µM
- IC50 ([4]; Homo sapiens, BEAS-2B): 14 to 19 µM
- TGI BEAS-2B [4, 9]: 9.8 ± 1.6 µM
- GI50 ([5]; eight cancer cell lines, read-out: GI50 across all the cancer cell lines tested): < 10 µM
- IC50 ([5]; eight colon, prostate, breast and lung cancer cell lines, read-out: IC50 in all the cancer cell lines tested): < 10 µM
- GI50 ([5]; read-out: GI50 in at least six out of the eight cell lines): < 5 µM
- Early Apop. cells (HCT-116 cells [6]; 15 μM): ~ 23%
- Late Apop./Dead cells (HCT-116 cells [6]; 15 μM): ~ 13%
- Live cells (HCT-116 cells [6]; 15 μM): ~ 63%
- Dead cells (HCT-116 cells [6]; 25 μM): ~ 10%
- Late Apop./Dead cells (HCT-116 cells [6]; 25 μM): ~ 20%
- Live cells (HCT-116 cells [6]; 25 μM): ~ 60%
- cells detected to be apoptotic (HCT-116 cells [6]; 25 μM): more than 30%
- Dead cells (HCT-116 cells [7]; Caspase 3/7 assay, 25 μM): ~ 11%
- caspase 3/7 activity (HCT-116 cells [7]; 2.5 to 25 µM, result in words): no clear enhancement
- blood serum biochemistry (creatinine, AST, ALT, Alk. Phos, BUN) vs vehicle (In vivo toxicity study; female nude mice, endpoint): no significant changes
- behavior and food/water uptake (In vivo toxicity study; mice): no changes
- body weight during treatment (In vivo toxicity study; mice): no appreciable variations
